Consider 33 compounds from US20210387966A1, “2-AMINO-N-HETEROARYL-NICOTINAMIDES AS NAV1.8 INHIBITORS” (Merck Sharp & Dohme Corp., priority 2018, published 2021).

As usually defined, the IC50 is the concentration that inhibits the measured activity by half.

SMILES strings stand for the structures.

T1 sequence (Q9Y5Y9 whole entry): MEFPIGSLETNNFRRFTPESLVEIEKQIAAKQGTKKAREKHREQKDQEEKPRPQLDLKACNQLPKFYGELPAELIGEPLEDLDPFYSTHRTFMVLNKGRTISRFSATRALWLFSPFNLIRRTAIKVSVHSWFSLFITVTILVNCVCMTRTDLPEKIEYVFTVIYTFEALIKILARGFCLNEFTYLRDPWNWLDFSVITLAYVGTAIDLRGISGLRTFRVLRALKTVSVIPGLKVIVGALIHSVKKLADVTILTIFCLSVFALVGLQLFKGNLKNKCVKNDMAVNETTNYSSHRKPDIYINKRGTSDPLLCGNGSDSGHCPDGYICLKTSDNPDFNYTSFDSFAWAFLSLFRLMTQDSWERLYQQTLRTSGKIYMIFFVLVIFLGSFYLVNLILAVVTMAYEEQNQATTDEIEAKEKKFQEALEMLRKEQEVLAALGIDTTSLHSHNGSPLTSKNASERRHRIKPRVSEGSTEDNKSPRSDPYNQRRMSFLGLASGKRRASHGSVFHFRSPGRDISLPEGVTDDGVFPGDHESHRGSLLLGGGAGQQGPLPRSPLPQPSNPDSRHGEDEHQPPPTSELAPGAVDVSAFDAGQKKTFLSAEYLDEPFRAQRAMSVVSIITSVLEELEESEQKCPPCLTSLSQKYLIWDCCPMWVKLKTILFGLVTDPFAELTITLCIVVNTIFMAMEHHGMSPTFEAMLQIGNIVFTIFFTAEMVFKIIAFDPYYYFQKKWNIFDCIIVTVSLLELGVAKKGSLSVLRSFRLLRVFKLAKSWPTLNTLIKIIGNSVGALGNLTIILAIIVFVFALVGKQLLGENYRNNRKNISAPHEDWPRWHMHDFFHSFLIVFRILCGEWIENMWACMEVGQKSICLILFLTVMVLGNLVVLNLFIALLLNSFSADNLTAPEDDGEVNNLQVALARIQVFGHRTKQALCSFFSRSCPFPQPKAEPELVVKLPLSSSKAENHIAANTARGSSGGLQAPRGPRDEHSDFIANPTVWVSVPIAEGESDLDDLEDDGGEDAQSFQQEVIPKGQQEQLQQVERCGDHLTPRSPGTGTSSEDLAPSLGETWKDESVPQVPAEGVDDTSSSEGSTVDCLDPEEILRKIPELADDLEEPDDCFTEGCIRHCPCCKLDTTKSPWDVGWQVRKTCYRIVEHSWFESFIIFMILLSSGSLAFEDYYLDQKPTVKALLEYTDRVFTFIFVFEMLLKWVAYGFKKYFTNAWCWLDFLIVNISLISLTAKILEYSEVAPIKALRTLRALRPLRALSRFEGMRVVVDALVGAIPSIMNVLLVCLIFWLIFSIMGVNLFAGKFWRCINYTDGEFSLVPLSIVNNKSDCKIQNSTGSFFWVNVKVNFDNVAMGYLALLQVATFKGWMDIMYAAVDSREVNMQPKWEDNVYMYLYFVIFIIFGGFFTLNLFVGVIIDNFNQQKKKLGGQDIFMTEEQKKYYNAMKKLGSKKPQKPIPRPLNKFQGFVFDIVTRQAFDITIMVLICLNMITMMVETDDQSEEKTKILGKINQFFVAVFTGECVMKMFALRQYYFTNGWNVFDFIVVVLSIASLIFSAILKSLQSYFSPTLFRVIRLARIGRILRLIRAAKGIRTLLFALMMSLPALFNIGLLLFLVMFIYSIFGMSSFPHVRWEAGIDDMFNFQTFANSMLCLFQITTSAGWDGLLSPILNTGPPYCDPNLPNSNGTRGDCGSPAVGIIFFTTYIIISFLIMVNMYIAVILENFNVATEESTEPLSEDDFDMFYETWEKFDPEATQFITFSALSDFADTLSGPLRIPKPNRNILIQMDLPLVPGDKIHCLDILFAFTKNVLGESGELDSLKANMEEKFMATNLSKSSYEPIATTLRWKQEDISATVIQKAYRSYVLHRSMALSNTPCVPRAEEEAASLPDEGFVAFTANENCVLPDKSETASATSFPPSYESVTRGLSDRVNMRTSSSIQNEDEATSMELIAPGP

The test has as its target T1, human Nav1.8 channels (Homo sapiens, UniProt Q9Y5Y9).
T1 construct: expressed in transfected cells
In words: Nav1.8 Qube automated patch-clamp assay. The format is cell-based. Particulars: human Nav1.8 stably expressed in HEK 293 cells; whole-cell voltage clamp, room temperature; resting or inactivated state not specified; read-out: IC50 values (nM) for Examples in the Nav1.8 Qube Assay. The method in brief:
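Whole-cell patch clamp at room temperature on HEK293 cells stably expressing human Nav1.8. A 1 Hz train of ten 20 ms pulses to 10 mV from −90 mV holding, with −67 mV repolarization, was applied; first- and tenth-pulse peak currents gave resting and inactivated-state IC50s by Hill fitting.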
`Cc1ccc(C(=O)Nc2cncc(S(N)(=O)=O)c2)c(N2CCC(F)(F)CC2)n1` [Example 9, 2-(4,4-difluoro-1-piperidyl)-6-methyl-N-(5-sulfamoyl-3-pyridyl)pyridine-3-carboxamide]: the IC50 amounted to 816 nM. The figure for `O=C(Nc1cc[nH]c(=O)c1)c1cc(C(F)(F)F)cnc1N1CCCCCC1` [Example 212, 2-(azepan-1-yl)-N-(2-oxo-1,2-dihydropyridin-4-yl)-5-(trifluoromethyl)nicotinamide] is 570 nM; for `NS(=O)(=O)c1cc(NC(=O)c2cc(C(F)(F)F)cnc2N2CCC(F)(F)CC2)ccn1` [Example 175, 2-(4,4-difluoropiperidin-1-yl)-N-(2-sulfamoylpyridin-4-yl)-5-(trifluoromethyl) nicotinamide] it is 53 nM; for `NS(=O)(=O)c1cc(NC(=O)c2cc(C(F)(F)F)cnc2N2CCOC(c3ccc(C(F)(F)F)cc3)C2)ccn1` (stereo not drawn) [Example 91, N-(2-sulfamoyl-4-pyridyl)-5-(trifluoromethyl)-2-[2-[4-(trifluoromethyl)phenyl]morpholin-4-yl]pyridine-3-carboxamide] it is 616 nM.

In the case of `NS(=O)(=O)c1cc(NC(=O)c2ncc(Cl)nc2N2CCCC(F)(F)CC2)ccn1` [Example 216, 5-chloro-3-(4,4-difluoroazepan-1-yl)-N-(2-sulfamoylpyridin-4-yl)pyrazine-2-carboxamide], the concentration for half-maximal inhibition (IC50) is 80 nM.

As to `NS(=O)(=O)c1cncc(NC(=O)c2cc(C(F)(F)F)cnc2N2CCCCCC2)c1` [Example 145, 2-(azepan-1-yl)-N-(5-sulfamoyl-3-pyridyl)-5-(trifluoromethyl) pyridine-3-carboxamide], the IC50 was 161 nM.

Take `NS(=O)(=O)c1cc(NC(=O)c2cc(Br)cnc2N2CCC(F)(F)CC2)ccn1` [Example 204, 5-bromo-2-(4,4-difluoropiperidin-1-yl)-N-(2-sulfamoylpyridin-4-yl)nicotinamide]: the IC50 turned out to be 55 nM. Then `O=C(Nc1cncc(F)c1)c1cc(C(F)(F)F)cnc1N1CCCCCC1` [Example 186, 2-(azepan-1-yl)-N-(5-fluoropyridin-3-yl)-5-(trifluoromethyl)nicotinamide], with 1290 nM; and `CC1CC(F)(F)CCN1c1ncc(C(F)(F)F)cc1C(=O)Nc1ccnc(S(N)(=O)=O)c1` (single isomer, unassigned) [Example 73, (R or S)-2-(4,4-difluoro-2-methylpiperidin-1-yl)-N-(2-sulfamoylpyridin-4-yl)-5-(trifluoromethyl)nicotinamide], with 225 nM. In the case of `Cc1nc(N2CCCC(F)(F)CC2)c(C(=O)N(C)c2ccnc(S(N)(=O)=O)c2)c(C)c1Cl` [Example 214, 5-chloro-2-(4,4-difluoroazepan-1-yl)-N,4,6-trimethyl-N-(2-sulfamoylpyridin-4-yl)nicotinamide], the IC50 stood at 347 nM. The figure for `CC1CN(c2ncc(C(F)(F)F)cc2C(=O)Nc2ccnc(S(N)(=O)=O)c2)CCCC1(F)F` (stereo not drawn) [Example 131, 2-(4,4-difluoro-3-methylazepan-1-yl)-N-(2-sulfamoylpyridin-4-yl)-5-(trifluoromethyl)nicotinamide] is 2 nM; for `NS(=O)(=O)c1cc(NC(=O)c2cc(C(F)(F)F)cnc2N2CCC3C(C2)C3(F)F)ccn1` (single isomer, unassigned) [Example 70, 2-((1R,6R or 1S,6S)-7,7-difluoro-3-azabicyclo[4.1.0]heptan-3-yl)-N-(2-sulfamoylpyridin-4-yl)-5-(trifluoromethyl)nicotinamide] it is 41 nM; for `NS(=O)(=O)c1cc(NC(=O)c2cc(C(F)(F)F)cnc2N2CCC(C(F)(F)F)C2)ccn1` (stereo not drawn) [Example 128, N-(2-sulfamoylpyridin-4-yl)-5-(trifluoromethyl)-2-[3-(trifluoromethyl)pyrrolidin-1-yl]pyridine-3-carboxamide] it is 94 nM. Then `CC1CN(c2ncc(C(F)(F)F)cc2C(=O)Nc2ccnc(C#N)c2)CCC1(F)F` (single isomer, unassigned) [Example 154, (S or R)-N-(2-cyanopyridin-4-yl)-2-(4,4-difluoro-3-methylpiperidin-1-yl)-5-(trifluoro-methyl)nicotinamide], with 84 nM; and `Cc1nc(C2CCC(C)CC2)c(C(=O)Nc2ccnc(S(N)(=O)=O)c2)c(C)c1Cl` (stereo not drawn) [Example 215, 5-chloro-4,6-dimethyl-2-(4-methylcyclohexyl)-N-(2-sulfamoylpyridin-4-yl)nicotinamide], with 6.6 nM. The figure for `NS(=O)(=O)c1cc(NC(=O)c2cc(C(F)(F)F)cnc2N2C[C@H]3C[C@@H](C2)C3(F)F)ccn1` [Example 76, 2-((1R,5S)-6,6-difluoro-3-azabicyclo[3.1.1]heptan-3-yl)-N-(2-sulfamoylpyridin-4-yl)-5-(trifluoromethyl)nicotinamide] is 389 nM.

`NS(=O)(=O)c1cc(NC(=O)c2cc(C(F)(F)F)cnc2N2CCc3cccc(C(F)(F)F)c3C2)ccn1` [Example 89, N-(2-sulfamoyl-4-pyridyl)-5-(trifluoromethyl)-2-[8-(trifluoromethyl)-3,4-dihydro-1H-isoquinolin-2-yl]pyridine-3-carboxamide]: the IC50 was determined as 275 nM.

Regarding `C[C@@H]1CN(c2ncc(C(F)(F)F)cc2C(=O)Nc2ccnc(S(N)(=O)=O)c2)CCCO1` [Example 111, 2-[(2R)-2-methyl-1,4-oxazepan-4-yl]-N-(2-sulfamoyl-4-pyridyl)-5-(trifluoromethyl)pyridine-3-carboxamide], the IC50 stood at 633 nM. Then `NS(=O)(=O)c1cc(NC(=O)c2cc(C(F)(F)F)cnc2N2CCN(CC3CC3)C(=O)C2)ccn1` [Example 99, 2-[4-(cyclopropylmethyl)-3-oxo-piperazin-1-yl]-N-(2-sulfamoyl-4-pyridyl)-5-(trifluoromethyl)pyridine-3-carboxamide], with 2560 nM; and `NS(=O)(=O)c1cncc(NC(=O)c2cc(C(F)(F)F)cnc2N2CCC(F)(F)CC2)n1` [Example 1, 2-(4,4-difluoropiperidin-1-yl)-N-(6-sulfamoylpyrazin-2-yl)-5-(trifluoromethyl)nicotinamide], with 406 nM.

Take `NS(=O)(=O)c1cc(NC(=O)c2cc(C(F)(F)F)cnc2N2CCCC(CO)C2)ccn1` (stereo not drawn) [Example 7, 2-(3-(hydroxymethyl)piperidin-1-yl)-N-(2-sulfamoylpyridin-4-yl)-5-(trifluoromethyl)nicotinamide]: the IC50 worked out at 2830 nM. The figure for `NS(=O)(=O)c1cc(NC(=O)c2ccc(C(F)F)nc2N2CCCC(F)(F)CC2)ccn1` [Example 174, 2-(4,4-difluoroazepan-1-yl)-6-(difluoromethyl)-N-(2-sulfamoylpyridin-4-yl)nicotinamide] is 4.1 nM. Then `NS(=O)(=O)c1cc(NC(=O)c2cc(C3CC3)c(OCC(F)(F)F)nc2N2CCC(F)(F)CC2)ccn1` [Example 20, 5-cyclopropyl-2-(4,4-difluoropiperidin-1-yl)-N-(2-sulfamoylpyridin-4-yl)-6-(2,2,2-trifluoroethoxy)nicotinamide], with 67 nM; and `NS(=O)(=O)c1cc(NC(=O)c2cc(C(F)(F)F)cnc2N2C[C@@H]3[C@H](C2)C(F)(F)C3(F)F)ccn1` [Example 60, N-(2-sulfamoylpyridin-4-yl)-2-((1R,5S)-6,6,7,7-tetrafluoro-3-azabicyclo[3.2.0]heptan-3-yl)-5-(trifluoromethyl)nicotinamide], with 14 nM; and `Cc1nc(N2CCC(F)(F)C(C)C2)c(C(=O)Nc2ccnc(S(N)(=O)=O)c2)cc1Cl` (single isomer, unassigned) [Example 55, (S or R)-5-chloro-2-(4,4-difluoro-3-methylpiperidin-1-yl)-6-methyl-N-(2-sulfamoylpyridin-4-yl)nicotinamide], with 1.4 nM. The figure for `NS(=O)(=O)c1cc(NC(=O)c2cc(C(F)(F)F)cnc2N2CCC[C@@H]2C(F)(F)F)ccn1` [Example 127, (R)-N-(2-sulfamoylpyridin-4-yl)-5-(trifluoromethyl)-2-(2-(trifluoromethyl)pyrrolidin-1-yl)nicotinamide] is 220 nM. In the case of `Cc1nc(N2CCCCCC2)c(C(=O)Nc2ccnc(S(N)(=O)=O)c2)c(C)c1Cl` [Example 201, 2-(azepan-1-yl)-5-chloro-4,6-dimethyl-N-(2-sulfamoylpyridin-4-yl)nicotinamide], the IC50 was 1.3 nM. Then `Cc1nc(N2CCC(F)(F)CC2)c(C(=O)Nc2ccnc(S(N)(=O)=O)c2)cc1C1CC1` [Example 14, 5-cyclopropyl-2-(4,4-difluoropiperidin-1-yl)-6-methyl-N-(2-sulfamoylpyridin-4-yl)nicotinamide], with 45 nM. Then `CC1CN(c2nc(C(F)(F)F)c(Cl)cc2C(=O)Nc2ccnc(S(N)(=O)=O)c2)CCC1(F)F` (single isomer, unassigned) [Example 165, (R or S)-5-chloro-2-(4,4-difluoro-3-methylpiperidin-1-yl)-N-(2-sulfamoylpyridin-4-yl)-6-(trifluoromethyl)nicotinamide], with 2.1 nM; and `NS(=O)(=O)c1cncc(NC(=O)c2cc(Cl)cnc2N2CCC(F)(F)CC2)c1` [Example 10, 5-chloro-2-(4,4-difluoro-1-piperidyl)-N-(5-sulfamoyl-3-pyridyl)pyridine-3-carboxamide], with 174 nM. Then `CS(=O)(=O)c1cc(NC(=O)c2cc(C(F)(F)F)cnc2N2CCCCCC2)ccn1` [Example 140, 2-(azepan-1-yl)-N-(2-methylsulfonyl-4-pyridyl)-5-(trifluoromethyl)-pyridine-3-carboxamide], with 91 nM; and `O=C(O)c1ccc(NC(=O)c2cc(C(F)(F)F)cnc2N2CCC(F)(F)CC2)cn1` [Example 3, 5-(2-(4,4-difluoropiperidin-1-yl)-5-(trifluoromethyl)nicotinamido)picolinic acid], with 2380 nM. With `CC(C)(C)NS(=O)(=O)c1cc(NC(=O)c2cc(Cl)cnc2N2CCCC(F)(F)CC2)ccn1` [Example 109, N-[2-(tert-butylsulfamoyl)-4-pyridyl]-5-chloro-2-(4,4-difluoroazepan-1-yl)pyridine-3-carboxamide], the IC50 amounted to 289 nM.
